Measured values as given in paper PMC3261944, “The in Vitro Estrogenic Activities of Polyfluorinated Iodine Alkanes” (Environmental Health Perspectives, 2011).

Experiments:
MCF-7BUS cells = assay: E-screen assay (MCF-7BUS cell proliferation, WST-1); type: cell-based, Human; settings: for E-screen Maximum induction (%): percentage of the maximum proliferation effect of tested compound to that of E2, 6 days exposure; for Proliferation / estrogenic effect in the E-screen assay (in words): within the tested concentration ranges
Procedure: (§1) Cell culture. Human MCF-7BUS breast adenocarcinoma cells and MVLN cells were cultured in 100-mm culture dishes in a humidified atmosphere of 5% CO2 at 37°C. Cells were maintained in Dulbecco’s modified Eagle’s medium (DMEM)/F-12 (Hyclone, Logan, UT, USA) containing 10% fetal bovine serum, 100 U/mL streptomycin-penicillin, 2 mM L-glutamine, and 1% insulin-transferrin-selenium supplement (all from Gibco, Grand Island, NY, USA).
E-screen assay. MCF-7BUS cells were kindly provided by A.M. Soto and C. Sonnenschein (Tufts University School of Medicine, Boston, MA, USA). In response to ERα agonists, the mitotic effect leads to the proliferation of MCF-7BUS cells. […] Cells were trypsinized and plated into the interior 60 wells of 96-well plates at the density of 3,000 cells/well. Before each experiment, cells were starved in steroid-free (SF) medium for 48 hr to minimize the basal hormonal activity during assays. SF medium consisted of phenol red–free DMEM/F-12 (Hyclone) supplemented with 5% dextran-charcoal-treated fetal bovine serum (Hyclone), 100 U/mL streptomycin-penicillin, and 2 mM L-glutamine. […] We used a WST-1 proliferation kit (Roche Diagnostics, Mannheim, Germany) to assess proliferation after 6 days of exposure according to the kit instructions. The WST-1 assay is based on the enzymatic cleavage of the tetrazolium salt WST-1 to formazan by cellular mitochondrial dehydrogenases present in viable cells. The absorbance of the WST-1 solution was detected by a microplate reader (Varioskan Flash, Thermo Fisher Scientific, Waltham, MA, USA) at 450 nm, with the reference wave length at 690 nm. The cell proliferation effect was calculated from the solvent control (0.1% ethanol)-corrected absorbance and expressed as the percentage of maximal absorbance of the positive control. Three replicates were used in each experiment.
(§2) The concentration–response analyses were performed with four-parameter logistic curve regression analysis according to the following formula:
(§3) y = minimum + (maximum – minimum) ÷ [1 + (x/EC50)^Hill slope], [1]
(§4) where y is the response value, x is the log concentration of the test compound, and EC50 is the concentration that induces half of the maximum proliferation effect or luciferase activity.
EC50 values were calculated from this nonlinear regression model. EC20 were calculated as […]

EGR3 = assay: Expression of estrogen-responsive gene EGR3 (quantitative RT-PCR); type: cell-based, Human; settings: MCF-7 cells, 48 hr, vs 0.1% ethanol; 50 μM PFBI, PFHxI, PFOI, PFBDI, PFOA, PFOC, PFOB, 1-iodohexane, 4:2 FTI, 6:2 FTI; 40 μM PFDI, PFDoI, PFODI, 8:2 FTI, 10:2 FTI; 20 μM PFHxDI; 100 pM E2
Procedure: (§5) RNA isolation and reverse transcription polymerase chain reaction (RT-PCR). MCF-7BUS cells were seeded in six-well plates at the density of 1.0 × 10^6 cells per well, starved in SF medium for 48 hr, and exposed to test compounds for 48 hr. First, cells were rinsed twice with cold phosphate-buffered saline, and total RNA was isolated using Trizol reagent (Invitrogen Inc., Carlsbad, CA, USA) following the manufacturer’s protocol. The 260 nm and 280 nm absorbance reading of total RNA was performed using a Nanodrop spectrophotometer (Thermo Scientific, Waltham, MA, USA). The concentration of RNA was quantified by the reading at 260 nm.
(§6) We used a two-step quantitative RT-PCR to quantify gene expression. Total RNA was converted to cDNA using M-MLV (Moloney murine leukemia virus) reverse transcriptase (Promega, Madison, WI, USA) with oligo dT(15), following the manufacturer’s instructions. The final cDNA solution was diluted five times with DNase/RNase-free water (Gibco). Quantitative PCR was performed with a Stratagene MX3005 thermal cycler (Stratagene, La Jolla, CA, USA). PCR reaction mixtures (25 μL) contained 12.5 μL GoTaq Green Master Mix (Promega), 2 μL diluted cDNA, and 0.2 μM sense/antisense primers. The thermal cycle was 5 min at 95°C, followed by 45 cycles of 15 sec at 95°C, 30 sec at 55°C, and 30 sec at 72°C. The primer sequences of early growth response protein 3 (EGR3) were derived from [Terasaka et al. (2004)]. We designed the primers of internal gene β-actin and trefoil factor 1 (TFF1; pS2) with Primer Premier 5 software (Premier Biosoft International, Palo Alto, CA, USA). The primer sequences were as follows: for β-actin (NM_001101), 5´-CACTCT[…]TCCTTCC-3´ (forward) and 5´-[…][…]-3´ (reverse); for EGR3 (NM_004430), 5´-CCATGATTC[…]-3´ (forward) and 5´-GTGGATCTGCTTGTCTTTGAATG-3´ (reverse); and for TFF1 (NM_003225), 5´-AGAAGCG […]-3´ (forward) and 5´-[…][…]-3´ (reverse). The quantification of target gene expression was based on a comparative cycle threshold (Ct) value. We normalized the expression level of each target gene to its reference gene β-actin. The fold change of the target genes was analyzed by the 2^−ΔΔCt method ([Livak and Schmittgen 2001]). We used melting curve analysis and agarose gel electrophoresis to verify the correct PCR products.

ER = target: T1, ER (Homo sapiens, UniProt P03372); assay: MVLN assay (estrogen-responsive luciferase reporter transactivation); type: cell-based; settings: for MVLN assay Maximum induction (%): percentage of the maximum induction (luciferase) of tested compound to that of E2, 2 days exposure; for Luciferase induction / estrogenic effect in the MVLN assay (in words): within the tested concentration ranges
T1 construct: This cell line was stably transfected with the luciferase reporter gene and estrogen-responsive element derived from the Xenopus vitellogenin A2 gene; endogenous in cells; host or cells: MVLN cells (provided by J.P. Giesy)
T1 sequence (P03372 1-595): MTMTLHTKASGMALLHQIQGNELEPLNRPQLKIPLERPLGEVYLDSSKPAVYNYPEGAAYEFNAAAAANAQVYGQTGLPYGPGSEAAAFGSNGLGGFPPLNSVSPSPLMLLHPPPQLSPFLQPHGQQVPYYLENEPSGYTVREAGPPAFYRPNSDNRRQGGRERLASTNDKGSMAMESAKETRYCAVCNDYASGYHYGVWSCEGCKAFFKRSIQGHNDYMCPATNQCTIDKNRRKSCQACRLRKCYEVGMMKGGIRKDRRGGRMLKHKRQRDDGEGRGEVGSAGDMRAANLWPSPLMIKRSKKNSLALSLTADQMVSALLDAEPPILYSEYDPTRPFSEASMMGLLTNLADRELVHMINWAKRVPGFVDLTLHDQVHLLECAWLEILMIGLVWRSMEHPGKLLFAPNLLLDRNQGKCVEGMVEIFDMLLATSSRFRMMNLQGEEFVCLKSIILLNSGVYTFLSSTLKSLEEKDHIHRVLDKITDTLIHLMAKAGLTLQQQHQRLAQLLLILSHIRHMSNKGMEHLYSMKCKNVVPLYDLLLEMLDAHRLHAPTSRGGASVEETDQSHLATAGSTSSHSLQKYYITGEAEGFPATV
Procedure: as §1
MVLN assay. The MVLN cell line was kindly provided by J.P. Giesy (Michigan State University, East Lansing, MI, USA). This cell line was stably transfected with the luciferase reporter gene and estrogen-responsive element derived from the Xenopus vitellogenin A2 gene. […] Cells were seeded in the interior 60 wells of a 96-well ViewPlate (Packard Instrument Company, Boston, MA, USA) at a density of 7 × 10^4 cells/well, starved in SF medium for 48 hr, and exposed to test compounds for 2 days. […] Luciferase activity was measured with the LucLite kit (Packard Instruments) according to the manufacturer’s protocol. We measured luminescence by microplate reader (Varioskan Flash) and integrated the luminescence signal for 10 sec. Total protein content was measured by the Bradford assay (Tiangen, Beijing, China) to normalize luminescent units. The results are given as relative luminescent unit per microgram protein. The maximal induction of positive control (corrected for solvent control, 0.1–0.2% ethanol) was set as 100%, and the responses of other chemicals were converted to a percentage of the maximum level. Three replicates were used in each experiment. The cytotoxicity of tested chemicals was examined by WST-1 kit in parallel and routinely observed under microscope to identify the exposure concentration range.
as §2, §3, §4
EC50 values were calculated from this nonlinear regression model. EC20 were calculated as
ECx = [x/(100 – x)]^(1/Hill slope) × EC50, [2]

TFF1 (pS2) = assay: Expression of estrogen-responsive gene TFF1 (quantitative RT-PCR); type: cell-based, Human; settings: MCF-7 cells, 48 hr, vs 0.1% ethanol; 50 μM PFBI, PFHxI, PFOI, PFBDI, PFOA, PFOC, PFOB, 1-iodohexane, 4:2 FTI, 6:2 FTI; 40 μM PFDI, PFDoI, PFODI, 8:2 FTI, 10:2 FTI; 20 μM PFHxDI; 100 pM E2
Procedure: as §5, §6

| Structure (SMILES) | E-screen Maximum induction (%) (MCF-7BUS cells) | Proliferation / estrogenic effect in the E-screen assay (in words) (MCF-7BUS cells) | EGR3 mRNA expression, fold up-regulation (EGR3) | MVLN assay Maximum induction (%) (ER) | Luciferase induction / estrogenic effect in the MVLN assay (in words) (ER) | TFF1 mRNA expression, fold up-regulation (TFF1 (pS2)) | EC50 (MCF-7BUS cells; Homo sapiens, MCF7/BUS, 144 h, read-out: E-screen EC50) | E-screen Relative potency (MCF-7BUS cells; ratio of EC50 of E2 to that of test compound) | EC50 (ER) | Luciferase activity on coexposure with OHT (ER; OHT 10 nM coexposed with 100 μM PFHxI, 100 μM PFOI, 100 μM PFBDI, 20 μM PFHxDI or 40 μM PFODI) | MVLN assay Relative potency (ER; footnote: ratio of EC50 of E2 to that of test compound, text: based on EC20) | MVLN assay EC20 (ER; luciferase activity, 2 days, from Hill slope and EC50) |
| --- | --- | --- | --- | --- | --- | --- | --- | --- | --- | --- | --- | --- |
| CCCCCCI [1-Iodohexane, reference compound] | NDd (The maximum relative proliferation effect was < 7%) | negative results | did not affect the expression | NDe (The maximum relative luciferase activity was < 5%) | negative results | did not affect the expression | – | – | – | – | – | – |
| FC(F)(F)C(F)(F)C(F)(F)C(F)(F)I [PFBI, 1-iodoperfluorobutane] | NDd (The maximum relative proliferation effect was < 7%) | did not show proliferation effects | did not affect the expression | – | – | did not affect the expression | – | – | – | – | – | – |
| FC(F)(F)C(F)(F)C(F)(F)C(F)(F)C(F)(F)C(F)(F)C(F)(F)C(F)(F)C(F)(F)C(F)(F)I [PFDI, 1-iodoperfluorodecane] | NDd (The maximum relative proliferation effect was < 7%) | did not show proliferation effects | did not affect the expression | – | – | did not affect the expression | – | – | – | – | – | – |
| FC(F)(F)C(F)(F)C(F)(F)C(F)(F)C(F)(F)C(F)(F)C(F)(F)C(F)(F)C(F)(F)C(F)(F)C(F)(F)C(F)(F)I [PFDoI, 1-iodoperfluorododecane] | NDd (The maximum relative proliferation effect was < 7%) | did not show proliferation effects | did not affect the expression | – | – | did not affect the expression | – | – | – | – | – | – |
| FC(F)(F)C(F)(F)C(F)(F)C(F)(F)C(F)(F)C(F)(F)C(F)(F)C(F)(F)Br [PFOB, 1-bromoperfluorooctane, reference compound] | NDd (The maximum relative proliferation effect was < 7%) | negative results | did not affect the expression | NDe (The maximum relative luciferase activity was < 5%) | negative results | did not affect the expression | – | – | – | – | – | – |
| FC(F)C(F)(F)C(F)(F)C(F)(F)C(F)(F)C(F)(F)C(F)(F)C(F)(F)F [PFOC, 1H-perfluorooctane, reference compound] | NDd (The maximum relative proliferation effect was < 7%) | negative results | did not affect the expression | NDe (The maximum relative luciferase activity was < 5%) | negative results | did not affect the expression | – | – | – | – | – | – |
| FC(F)(F)C(F)(F)C(F)(F)C(F)(F)C(F)(F)C(F)(F)C(F)(F)C(F)(F)I [PFOI, 1-iodoperfluorooctane] | 101% | produced full concentration–response curves | 3.6 fold | 25% | induced luciferase activity in a dose-related manner | – | 1.15 µM | 2.7 × 10^–6 | 35.1 µM | marked reduction of luciferase activity | 0.2 × 10^–6 | 20.4 µM |
